Test systems include HCC-2998 colon; HL-60(TB) leukemia; LOX IMVI melanoma; RPMI-8226 leukemia; SN12C renal; SR leukemia; UACC-257 melanoma; COLO 205 colon; DU-145 prostate; PC-3 prostate.
Holding throughout (experiment): NCI anticancer screen, dose series, 48 h

Molecules are shown by their SMILES. “And” between values parts separate entries of the source, which are not always exact repeats. Equal entries are not always repeated.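 1) Cells in 96-well plates. 2) Compound, 48 h, 5 concentrations. 3) Linear interpolation between surrounding doses. 4) Unreached endpoint = highest concentration. At the GI50, growth is halved. TGI marks complete inhibition of growth.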

As to `C=CCNC1=C(C(=O)OCC)C(=O)CO1`, the TGI in the test with HCC-2998 colon, in the test on HL-60(TB) leukemia, in the test with LOX IMVI melanoma, with RPMI-8226 leukemia, with SN12C renal and in the test on SR leukemia was over 100 µM in each case. The TGI in the test with UACC-257 melanoma was over 100 µM.

`COc1cc(-c2oc3c(OC)c(OC)cc(O)c3c(=O)c2OC)ccc1O`: the TGI is over 100 µM in the test with COLO 205 colon; over 50 µM with DU-145 prostate; over 100 µM with HCC-2998 colon; 7.58 µM in the test with HL-60(TB) leukemia; > 100 µM and 36.3 µM with LOX IMVI melanoma; over 50 µM in the test on PC-3 prostate. For the same compound, the TGI in the test with SN12C renal and in the test with UACC-257 melanoma was over 100 µM in each case. The GI50 with HCC-2998 colon is > 100 µM and 31 µM; in the test with LOX IMVI melanoma, 1.88 µM and 7.95 µM; in the test on SN12C renal it was 3.73 µM and 12.4 µM.

On to `O=C1c2cccnc2-c2nc(/C=C/c3ccccc3)cc3c2c1nc1ccccc13`, for which the GI50 with COLO 205 colon was 3.74 µM; in the test with DU-145 prostate, 1.76 µM; in the test on HCC-2998 colon, 1.81 µM; with HL-60(TB) leukemia it was 1.79 µM; in the test with LOX IMVI melanoma it was 2.76 µM; in the test with PC-3 prostate it was 1.97 µM. The GI50 in the test with RPMI-8226 leukemia was 1.2 µM; with SN12C renal, 2.77 µM; in the test on UACC-257 melanoma, 2.35 µM. Moreover, the TGI with COLO 205 colon turned out to be 16.7 µM; in the test on DU-145 prostate, 3.58 µM; in the test with HCC-2998 colon, 3.2 µM; in the test with HL-60(TB) leukemia, 7.97 µM; in the test with LOX IMVI melanoma it was 6.92 µM; with PC-3 prostate, 13.6 µM. In addition, the TGI with RPMI-8226 leukemia was found to be 5.12 µM; in the test with SN12C renal, 9.01 µM; in the test on UACC-257 melanoma, 6.3 µM.

Consider `O=C1C(Cl)=C(Nc2ccc3cn[nH]c3c2)C(=O)c2ccccc21`, for which the GI50 was 1.42 µM with COLO 205 colon; 1.17 µM with DU-145 prostate; 2.02 µM in the test with HCC-2998 colon; 1.7 µM with HL-60(TB) leukemia; 0.562 µM with LOX IMVI melanoma; 1.17 µM with PC-3 prostate. For the same compound, the GI50 was 0.31 µM in the test on RPMI-8226 leukemia, 1.49 µM in the test with SN12C renal and 1.66 µM with UACC-257 melanoma. For the same compound, the TGI with COLO 205 colon worked out at 2.89 µM; in the test with DU-145 prostate it was 2.39 µM; in the test on HCC-2998 colon, 3.99 µM; with HL-60(TB) leukemia, 4.45 µM; in the test with LOX IMVI melanoma, 1.92 µM; with PC-3 prostate, 2.44 µM. In addition, the TGI in the test with RPMI-8226 leukemia is 2.43 µM; in the test on SN12C renal, 3.11 µM; in the test with UACC-257 melanoma it was 3.06 µM.

As to `O=C1c2ccccc2S(=O)(=O)N1CSC(=S)N1CCCC1`, the GI50 with COLO 205 colon is over 100 µM; in the test on DU-145 prostate, over 100 µM; with HCC-2998 colon, over 53.4 µM; with LOX IMVI melanoma it was over 100 µM; in the test with PC-3 prostate, 7.62 µM; in the test on SN12C renal, over 100 µM. The GI50 in the test on UACC-257 melanoma is over 100 µM. The TGI was over 100 µM in the test on COLO 205 colon; over 100 µM in the test with DU-145 prostate; over 100 µM in the test on HCC-2998 colon; over 100 µM with LOX IMVI melanoma; over 100 µM with PC-3 prostate; over 36 µM in the test on RPMI-8226 leukemia. In addition, the TGI in the test on SN12C renal and with UACC-257 melanoma was over 100 µM each time.

In the case of `O=[N+]([O-])c1ccc(NC2OCC(O)C(O)C2O)cc1` (stereo not drawn), the TGI in the test on COLO 205 colon, in the test on HCC-2998 colon, with LOX IMVI melanoma, with RPMI-8226 leukemia, in the test on SN12C renal and in the test on SR leukemia was over 100 µM each time. This compound also gave a TGI with UACC-257 melanoma of over 100 µM.

For the compound `Cc1cc(N(CCC#N)CCC#N)ccc1/C=C(\NC(=O)/C=C/c1ccccc1)NC(=O)Nc1ccc(Cl)cc1`, the TGI with COLO 205 colon, with HCC-2998 colon, with HL-60(TB) leukemia, with LOX IMVI melanoma, with RPMI-8226 leukemia and in the test with SN12C renal was over 100 µM throughout. The TGI in the test with UACC-257 melanoma was over 100 µM.

As to `Cc1ccc(S(=O)(=O)N2CCSCCSCCN(S(=O)(=O)c3ccc(C)cc3)CCN(S(=O)(=O)c3ccc(C)cc3)CC2)cc1`, the TGI in the test with COLO 205 colon, in the test with DU-145 prostate, with HCC-2998 colon, with HL-60(TB) leukemia, in the test on LOX IMVI melanoma and in the test with PC-3 prostate was over 100 µM each time. In addition, the TGI in the test with RPMI-8226 leukemia, with SN12C renal and with UACC-257 melanoma was over 100 µM each time.

`CC1=C(C(=O)Nc2ccccc2C)C(c2ccc([N+](=O)[O-])cc2)C(C(=O)Nc2ccccc2C)=C(C)N1`: the TGI with COLO 205 colon is over 100 µM; in the test on HCC-2998 colon, over 100 µM; in the test on HL-60(TB) leukemia, 47 µM; with LOX IMVI melanoma, over 100 µM; in the test on RPMI-8226 leukemia, over 100 µM; with SN12C renal it was over 100 µM. Besides, the TGI with UACC-257 melanoma was over 100 µM.

As to `CC12O[C@H](c3ccccc3)[C@H](c3ccccc3)N1C(=O)C1(C(=O)OCc3ccccc3)CC12` (stereo partly drawn), the TGI in the test on COLO 205 colon, with HCC-2998 colon, with HL-60(TB) leukemia, in the test with LOX IMVI melanoma, in the test with SN12C renal and with UACC-257 melanoma was over 100 µM throughout.

With `CCC(C(=O)[O-])C(=O)[O-].CCC(C(=O)[O-])C(=O)[O-].N.N.NCCCCCN.[Pt+4].[Pt+4]`, the GI50 with COLO 205 colon was 47.8 µM; in the test on HCC-2998 colon it was over 100 µM; with HL-60(TB) leukemia it was 43.1 µM; in the test with LOX IMVI melanoma, over 100 µM; in the test with RPMI-8226 leukemia it was over 100 µM; in the test with SN12C renal it was 15 µM. Besides, the GI50 in the test on UACC-257 melanoma was over 100 µM. Further, the TGI was over 100 µM with COLO 205 colon; over 100 µM with HCC-2998 colon; over 100 µM in the test with HL-60(TB) leukemia; over 100 µM in the test on LOX IMVI melanoma; over 100 µM in the test with RPMI-8226 leukemia; 87.3 µM in the test on SN12C renal. The compound further came in with a TGI in the test with UACC-257 melanoma of over 100 µM.

For `CN(C)c1ccc(/C=C2\CNC/C(=C\c3ccc(N(C)C)cc3)C2=O)cc1`, the TGI with COLO 205 colon is over 100 µM; in the test on HCC-2998 colon, over 100 µM; with LOX IMVI melanoma it was 37 µM; with RPMI-8226 leukemia, over 100 µM; in the test with SN12C renal, 75.4 µM; in the test with SR leukemia, 82.8 µM. Moreover, in the test on UACC-257 melanoma, the TGI was over 100 µM.

Consider `O=C(CC/C(C/C(=N/O)c1ccc(F)cc1)=N/O)N(Cc1ccccc1)Cc1ccccc1`, for which the TGI in the test on COLO 205 colon, in the test on HCC-2998 colon, with HL-60(TB) leukemia, in the test on LOX IMVI melanoma, with RPMI-8226 leukemia and in the test with SN12C renal was over 100 µM each time. In the test on UACC-257 melanoma, the TGI was over 100 µM.

Values taken from PubChem BioAssay (NCI).
